Patent US8846933B2, “N-link hydroxamic acid derivatives useful as antibacterial agents” (Pfizer Inc., priority 2009, dated 2014)

What was measured:
[1] = tested on: Pseudomonas aeruginosa UI-18: Wild-type (PA-7); assay: MIC determination (CLSI), strain PA-7; type: cell-based; conditions: strain PA-7, unit assumed
Summary of the method: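 MIC determined by broth dilution per CLSI M7-A7 guidelines with M100-S18 interpretive standards. Test organism: wild-type Pseudomonas aeruginosa UI-18, designated PA-7.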

[2] = tested on: Escherichia coli EC-1: VOGEL, mouse virulent; assay: MIC determination (CLSI), strain EC-1; type: cell-based; conditions: strain EC-1, unit assumed
Summary of the method: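 The mouse-virulent VOGEL isolate of E. coli, EC-1, served as test organism. Minimum inhibitory concentration was measured by CLSI dilution methodology (M7-A7; M100-S18 standards).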

[3] = generated in the same manner as in Table 4

Row | SMILES | PA-7 (MIC) [1, 3] | EC-1 (MIC) [2, 3] | PA-7 (MIC) [1] | EC-1 (MIC) [2]
1 | CC(CCn1ccc(-c2cccc(N)c2)cc1=O)(C(=O)NO)S(C)(=O)=O (centres unmarked) [Example 110, 4-[4-(3-aminophenyl)-2-oxopyridin-1(2H)-yl]-N-hydroxy-2-methyl-2-(methylsulfonyl)butanamide] | 64 µg/mL | > 64 µg/mL | – | –
2 | CC(C)NC(=O)c1ccc(-c2ccn(CCC(C)(C(=O)NO)S(C)(=O)=O)c(=O)c2)cc1 (centres unmarked) [Example 146, 4-{1-[4-(hydroxyamino)-3-methyl-3-(methylsulfonyl)-4-oxobutyl]-2-oxo-1,2-dihydropyridin-4-yl}-N-isopropylbenzamide] | > 64 µg/mL | > 64 µg/mL | – | –
3 | Cc1cn(-c2ccc(-c3ccn(CC[C@](C)(C(=O)NO)S(C)(=O)=O)c(=O)c3)cc2)nn1 [Example 377, (2R)-N-hydroxy-2-methyl-2-(methylsulfonyl)-4-{4-[4-(4-methyl-1H-1,2,3-triazol-1-yl)phenyl]-2-oxopyridin-1(2H)-yl}butanamide] | – | – | 8 µg/mL | 8 µg/mL
4 | CC(CCn1ccc(-c2ccncc2)cc1=O)(C(=O)NO)S(C)(=O)=O (centres unmarked) [Example 218, N-hydroxy-2-methyl-2-(methylsulfonyl)-4-(2-oxo-4,4′-bipyridin-1(2H)-yl)butanamide] | – | – | 64 µg/mL | > 64 µg/mL
5 | CC(CCn1ccc(-c2ccc([N+](=O)[O-])cc2)cc1=O)(C(=O)NO)S(C)(=O)=O (centres unmarked) [Example 101, N-hydroxy-2-methyl-2-(methylsulfonyl)-4-[4-(4-nitrophenyl)-2-oxopyridin-1(2H)-yl]butanamide] | 4 µg/mL | 8 µg/mL | – | –
6 | CC(CCn1ccc(-c2cccc(CO)c2)cc1=O)(C(=O)NO)S(C)(=O)=O (centres unmarked) [Example 144, N-hydroxy-4-{4-[3-(hydroxymethyl)phenyl]-2-oxopyridin-1(2H)-yl}-2-methyl-2-(methylsulfonyl)butanamide] | > 64 µg/mL | > 64 µg/mL | – | –
7 | COc1ccc(-c2ccc(-c3ccn(CC[C@](C)(C(=O)NO)S(C)(=O)=O)c(=O)c3)cc2)cn1 [Example 310, (2R)-N-hydroxy-4-{4-[4-(6-methoxypyridin-3-yl)phenyl]-2-oxopyridin-1(2H)-yl}-2-methyl-2-(methylsulfonyl)butanamide] | – | – | 0.5 µg/mL | 0.125 µg/mL
8 | CNC(=O)c1ccc(-c2ccn(CCC(C)(C(=O)NO)S(C)(=O)=O)c(=O)c2)cc1 (centres unmarked) [Example 188, 4-{1-[4-(hydroxyamino)-3-methyl-3-(methylsulfonyl)-4-oxobutyl]-2-oxo-1,2-dihydropyridin-4-yl}-N-methylbenzamide] | – | – | > 64 µg/mL | > 64 µg/mL
9 | CC(CCn1ccc(-c2ccc(Br)cc2F)cc1=O)(C(=O)NO)S(C)(=O)=O (centres unmarked) [Example 283, 4-[4-(4-bromo-2-fluorophenyl)-2-oxopyridin-1(2H)-yl]-N-hydroxy-2-methyl-2-(methylsulfonyl)butanamide] | – | – | 1 µg/mL | 0.25 µg/mL
10 | Cc1ccc(-c2ccn(CCC(C)(C(=O)NO)S(C)(=O)=O)c(=O)c2)cc1F (centres unmarked) [Example 151, 4-[4-(3-fluoro-4-methylphenyl)-2-oxopyridin-1(2H)-yl]-N-hydroxy-2-methyl-2-(methylsulfonyl)butanamide] | 2 µg/mL | 2 µg/mL | – | –
11 | Cc1ccc(-c2ccn(CC[C@](C)(C(=O)NO)S(C)(=O)=O)c(=O)c2)cc1F [Example 322, (2R)-4-[4-(3-fluoro-4-methylphenyl)-2-oxopyridin-1(2H)-yl]-N-hydroxy-2-methyl-2-(methylsulfonyl)butanamide] | – | – | 0.5 µg/mL | 0.5 µg/mL
12 | C[C@@](CCn1ccc(-c2ccc(SCCCCO)cc2)cc1=O)(C(=O)NO)S(C)(=O)=O [Example 319] | – | – | 1 µg/mL | 0.25 µg/mL
13 | CC(CCn1ccc(-c2ccc(C#N)cc2)cc1=O)(C(=O)NO)S(C)(=O)=O (centres unmarked) [Example 198, 4-[4-(4-cyanophenyl)-2-oxopyridin-1(2H)-yl]-N-hydroxy-2-methyl-2-(methylsulfonyl)butanamide] | – | – | 8 µg/mL | 16 µg/mL
14 | C[C@@](CCn1ccc(-c2ccc(-c3ncc(Cl)cn3)cc2)cc1=O)(C(=O)NO)S(C)(=O)=O [Example 458, (2R)-4-{4-[4-(5-chloropyrimidin-2-yl)phenyl]-2-oxopyridin-1(2H)-yl}-N-hydroxy-2-methyl-2-(methylsulfonyl)butanamide] | – | – | 0.5 µg/mL | 0.06 µg/mL
15 | CC(CCn1ccc(-c2ccc(Oc3ccccc3)cc2)cc1=O)(C(=O)NO)S(C)(=O)=O (centres unmarked) [Example 156, N-hydroxy-2-methyl-2-(methylsulfonyl)-4-[2-oxo-4-(4-phenoxyphenyl)pyridin-1(2H)-yl]butanamide] | 4 µg/mL | < 0.06 µg/mL | – | –
16 | CCOc1ccc(-c2ccn(CC[C@](C)(C(=O)NO)S(C)(=O)=O)c(=O)c2)cc1 [Example 332, (2R)-4-[4-(4-ethoxyphenyl)-2-oxopyridin-1(2H)-yl]-N-hydroxy-2-methyl-2-(methylsulfonyl)butanamide] | – | – | 0.5 µg/mL | 64 µg/mL

Row | SMILES | PA-7 (MIC) [1, 3] | EC-1 (MIC) [2, 3] | PA-7 (MIC) [1] | EC-1 (MIC) [2]
17 | CC(CCn1ccc(-c2ccc(OCCCCS(N)(=O)=O)cc2Cl)cc1=O)(C(=O)NO)S(C)(=O)=O (centres unmarked) [Example 276, 4-[4-{4-[4-(aminosulfonyl)butoxy]-2-chlorophenyl}-2-oxopyridin-1(2H)-yl]-N-hydroxy-2-methyl-2-(methylsulfonyl)butanamide] | – | – | 32 µg/mL | 16 µg/mL
18 | C[C@@](CCn1ccc(-c2cc(F)cc(F)c2)cc1=O)(C(=O)NO)S(C)(=O)=O [Example 335, (2R)-4-[4-(3,5-difluorophenyl)-2-oxopyridin-1(2H)-yl]-N-hydroxy-2-methyl-2-(methylsulfonyl)butanamide] | – | – | 2 µg/mL | 1 µg/mL
19 | CC(CCn1ccc(-c2ccc(Cl)c(F)c2)cc1=O)(C(=O)NO)S(C)(=O)=O (centres unmarked) [Example 142, 4-[4-(4-chloro-3-fluorophenyl)-2-oxopyridin-1(2H)-yl]-N-hydroxy-2-methyl-2-(methylsulfonyl)butanamide] | 1 µg/mL | 1 µg/mL | – | –
20 | CC(CCn1ccc(-c2ccc(OCCCN3CC(O)C3)cc2)cc1=O)(C(=O)NO)S(C)(=O)=O (centres unmarked) [Example 84, N-hydroxy-4-[4-{4-[3-(3-hydroxyazetidin-1-yl)propoxy]phenyl}-2-oxopyridin-1(2H)-yl]-2-methyl-2-(methylsulfonyl)butanamide] | 32 µg/mL | > 64 µg/mL | – | –
21 | Cc1ccnc2ccc(-c3ccn(CCC(C)(C(=O)NO)S(C)(=O)=O)c(=O)c3)cc12 (centres unmarked) [Example 302, N-hydroxy-2-methyl-4-[4-(4-methylquinolin-6-yl)-2-oxopyridin-1(2H)-yl]-2-(methylsulfonyl)butanamide] | – | – | 16 µg/mL | 64 µg/mL
22 | Cc1c(-c2ccc(OC(F)F)cc2)ccn(CC[C@](C)(C(=O)NO)S(C)(=O)=O)c1=O [Example 399, (2R)-4-{4-[4-(difluoromethoxy)phenyl]-3-methyl-2-oxopyridin-1(2H)-yl}-N-hydroxy-2-methyl-2-(methylsulfonyl)butanamide] | – | – | 1 µg/mL | 0.5 µg/mL
23 | CC(CCn1ccc(-c2ccc(-c3cccnc3)c(F)c2)cc1=O)(C(=O)NO)S(C)(=O)=O (centres unmarked) [Example 297, 4-[4-(3-fluoro-4-pyridin-3-ylphenyl)-2-oxopyridin-1(2H)-yl]-N-hydroxy-2-methyl-2-(methylsulfonyl)butanamide] | – | – | 2 µg/mL | 1 µg/mL
24 | Cc1cc(F)ccc1-c1ccn(CCC(C)(C(=O)NO)S(C)(=O)=O)c(=O)c1 (centres unmarked) [Example 122, 4-[4-(4-fluoro-2-methylphenyl)-2-oxopyridin-1(2H)-yl]-N-hydroxy-2-methyl-2-(methylsulfonyl)butanamide] | 8 µg/mL | 16 µg/mL | – | –
25 | C[C@@](CCn1ccc(-c2ccc(Oc3ncccc3Cl)cc2)cc1=O)(C(=O)NO)S(C)(=O)=O [Example 440, (2R)-4-[4-{4-[(3-chloropyridin-2-yl)oxy]phenyl}-2-oxopyridin-1(2H)-yl]-N-hydroxy-2-methyl-2-(methylsulfonyl)butanamide] | – | – | 2 µg/mL | 0.06 µg/mL
26 | CC(CCn1ccc(-c2cccc(C(F)(F)F)c2)cc1=O)(C(=O)NO)S(C)(=O)=O (centres unmarked) [Example 143, N-hydroxy-2-methyl-2-(methylsulfonyl)-4-{2-oxo-4-[3-(trifluoromethyl)phenyl]pyridin-1(2H)-yl}butanamide] | 8 µg/mL | 4 µg/mL | – | –
27 | C[C@@](CCn1ccc(-c2ccc(OCCC3CCN(C(=O)CO)CC3)cc2)cc1=O)(C(=O)NO)S(C)(=O)=O [Example 312, (2R)-4-[4-{4-[2-(1-glycoloylpiperidin-4-yl)ethoxy]phenyl}-2-oxopyridin-1(2H)-yl]-N-hydroxy-2-methyl-2-(methylsulfonyl)butanamide] | – | – | 4 µg/mL | 0.5 µg/mL
28 | CC(CCn1ccc(-c2ccc(F)cc2F)cc1=O)(C(=O)NO)S(C)(=O)=O (centres unmarked) [Example 186, 4-[4-(2,4-difluorophenyl)-2-oxopyridin-1(2H)-yl]-N-hydroxy-2-methyl-2-(methylsulfonyl)butanamide] | – | – | 2 µg/mL | 2 µg/mL
29 | CC(CCn1ccc(-c2ccc(F)cc2Cl)cc1=O)(C(=O)NO)S(C)(=O)=O (centres unmarked) [Example 155, 4-[4-(2-chloro-4-fluorophenyl)-2-oxopyridin-1(2H)-yl]-N-hydroxy-2-methyl-2-(methylsulfonyl)butanamide] | 0.5 µg/mL | 4 µg/mL | – | –
30 | CC(CCn1ccc(-c2ccc(OCCc3cccnc3)cc2)cc1=O)(C(=O)NO)S(C)(=O)=O (centres unmarked) [Example 271, N-hydroxy-2-methyl-2-(methylsulfonyl)-4-{2-oxo-4-[4-(2-pyridin-3-ylethoxy)phenyl]pyridin-1(2H)-yl}butanamide] | – | – | 2 µg/mL | 0.25 µg/mL
31 | COCCc1cccc(-c2ccn(CC[C@](C)(C(=O)NO)S(C)(=O)=O)c(=O)c2)c1 [Example 470] | – | – | 32 µg/mL | 16 µg/mL
